Measured values taken from US12478509B2, “Layered composite for scar treatment and prevention” (THE GOVERNMENT OF THE UNITED STATES AS REPRESENTED BY THE …, priority 2019, dated 2025).

How the values were obtained:
[1] = system: IL-1β, IL-2, IL-6, IL-13, G-CSF, and MIP-1α; assay: inflammatory cytokines
[2] = system: mouse DPT wounds; assay: neutrophil infiltration in mouse DPT burn wounds; type: in vivo
[3] = system: human dermal fibroblasts (HDF); assay: human dermal fibroblast / myofibroblast studies; type: cell-based
[4] = system: p38 MAPK; assay: p38 MAPK activation in TGF-β1 stimulated HDF; type: cell-based, human

Cc1ccc(=O)n(-c2ccccc2)c1 [Pirfenidone, 5-methyl-1-phenyl-2-(1H)-pyridone]
key inflammatory cytokines IL-1β, IL-2, IL-6, IL-13, G-CSF, and MIP-1α [1]: reduced | neutrophil infiltration [2]: decreased | HDF transdifferentiation to myofibroblasts [3]: inhibited | collagen deposition and fibrosis-related gene expression [3]: decreased | contractile machinery of activated dermal myofibroblasts [3]: weakened | p38 MAPK activation [4]: reduced
